In patent US11225505B2, “Antimicrobial polymyxin derivative compounds” (MONASH UNIVERSITY, priority 2015, dated 2022):
In brackets after ≈: the same amount, converted by molar mass. Like-named read-outs stand apart in the source and are kept apart here. Where a SMILES comes first, the peptide text is derived from it. Bridges are numbered along the chain shown (N, C = ends). [ ]: non-standard residue; d: D form. The star is where a group is joined. X69 = Cn1c(C(=O)*)nc2ccccc21; Dab = NCC[C@H](N)C(=O)O; X40 = Cc1cncc(C(=O)*)c1; Abu = CC[C@H](N)C(=O)O; Dap = NC[C@H](N)C(=O)O; X53 = O=C(c1ccncc1Cl)*

How the values were obtained:
Type in all cases: cell-based
[1] = test system: Acinetobacter baumannii ATCC 17978
Method in brief: (§1)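 Standard CLSI (M100-S24) microdilution in cation-adjusted broth gives the MIC for each strain. Test compounds are TFA-salt lipopeptides; the comparator is polymyxin B sulphate.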

[2] = test system: Acinetobacter baumannii FADDI-AB034
Method in brief: as §1

[3] = test system: Enterobacter cloacae FADDI-EC001
Method in brief: (§2)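 Lipopeptides (TFA salts) tested against Gram-negative strains by CLSI broth microdilution using cation-adjusted Mueller-Hinton broth; MIC recorded, polymyxin B sulphate as control.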

[4] = test system: Enterobacter cloacae FADDI-EC003
Method in brief: as §1

[5] = test system: Enterobacter cloacae FADDI-EC006
Method in brief: as §1

[6] = test system: Klebsiella pneumoniae FADDI-KP022
Method in brief: as §1

[7] = test system: Klebsiella pneumoniae FADDI-KP032
Method in brief: as §1

[8] = test system: Klebsiella pneumoniae Kp BM1
Method in brief: as §2

[9] = test system: Pseudomonas aeruginosa ATCC 27853
Method in brief: as §1

[10] = test system: Pseudomonas aeruginosa FADDI-PA01
Method in brief: as §1

[11] = test system: Pseudomonas aeruginosa FADDI-PA022
Method in brief: as §1

[12] = test system: Pseudomonas aeruginosa FADDI-PA038
Method in brief: as §1

[13] = test system: Acinetobacter baumannii FADDI-AB030; assay: microbe, parasite or virus in culture
Method in brief: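 Broth microdilution MIC in cation-adjusted Mueller-Hinton broth per CLSI M100-S24; lipopeptides tested as TFA salts. FADDI-AB030 is a multidrug-resistant clinical isolate. Polymyxin B sulphate served as control.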

Molecule | Minimum inhibitory concentration ([1]; ATCC 17978) | Minimum inhibitory concentration ([2]; FADDI-AB034) | Minimum inhibitory concentration ([3]; FADDI-EC001) | Minimum inhibitory concentration ([4]; FADDI-EC003) | Minimum inhibitory concentration ([5]; FADDI-EC006) | Minimum inhibitory concentration ([6]; FADDI-KP022) | Minimum inhibitory concentration ([7]; FADDI-KP032) | Minimum inhibitory concentration ([8]; Kp BM1) | Minimum inhibitory concentration ([9]; ATCC 27853) | Minimum inhibitory concentration ([10]; FADDI-) | Minimum inhibitory concentration ([11]; FADDI-PA022) | Minimum inhibitory concentration ([12]; FADDI-PA038) | Minimum inhibitory concentration ([13]; FADDI-AB030) | other results
Polymyxin B [reference compound] |  |  |  |  |  |  |  |  |  |  |  |  |  | Minimum inhibitory concentration ([1]; A. baumannii ATCC 17978, CAMHB broth microdilution): 1 µg/mL; Minimum inhibitory concentration ([2]; A. baumannii FADDI-AB034, CAMHB broth microdilution): 0.5 µg/mL; Minimum inhibitory concentration ([3]; E. cloacae FADDI-EC001, CAMHB broth microdilution): 0.25 µg/mL; Minimum inhibitory concentration ([4]; E. cloacae FADDI-EC003, CAMHB broth microdilution): 0.5 µg/mL; Minimum inhibitory concentration ([5]; E. cloacae FADDI-EC006, CAMHB broth microdilution): 0.5 µg/mL; Minimum inhibitory concentration ([6]; K. pneumoniae FADDI-KP022, CAMHB broth microdilution): <0.125 µg/mL; Minimum inhibitory concentration ([7]; K. pneumoniae FADDI-KP032, CAMHB broth microdilution): <0.125 µg/mL; Minimum inhibitory concentration ([8]; K. pneumoniae Kp BM1, CAMHB broth microdilution): 0.5 µg/mL; Minimum inhibitory concentration ([9]; P. aeruginosa ATCC 27853, CAMHB broth microdilution): 1 µg/mL; Minimum inhibitory concentration ([10]; P. aeruginosa FADDI-PA01, CAMHB broth microdilution): 0.5 µg/mL; Minimum inhibitory concentration ([11]; P. aeruginosa FADDI-PA022, CAMHB broth microdilution): 1 µg/mL; Minimum inhibitory concentration ([12]; P. aeruginosa FADDI-PA038, CAMHB broth microdilution): 1 µg/mL; Minimum inhibitory concentration ([13]; A. baumannii FADDI-AB030, CAMHB broth microdilution): 0.25 µg/mL; Minimum inhibitory concentration ([13]; clinically used antibiotics, clinical isolate A. baumannii FADDI-AB030): 0.25 µg/mL
CC[C@@H]1NC(=O)[C@@H](CC(C)C)NC(=O)[C@H](CCN)NC(=O)[C@@H](NC(=O)[C@H](CN)NC(=O)[C@@H](NC(=O)[C@H](CCN)NC(=O)c2cncc(C)c2)[C@@H](C)O)CCNC(=O)[C@H]([C@@H](C)O)NC(=O)[C@H](CCN)NC(=O)[C@H](CCN)NC1=O [Compound 30] (X40-[Dab]T[Dap][Dab][Dab][dL][Abu][Dab][Dab]T; lactam 4-C) | 8 µg/mL (≈ 7.23 µM) | 4 µg/mL (≈ 3.62 µM) | 0.5 µg/mL (≈ 0.452 µM) | 0.5 µg/mL (≈ 0.452 µM) | 2 µg/mL (≈ 1.81 µM) | 0.25 µg/mL (≈ 0.226 µM) | 2 µg/mL (≈ 1.81 µM) | 1 µg/mL (≈ 0.904 µM) | 0.5 µg/mL (≈ 0.452 µM) | 0.5 µg/mL (≈ 0.452 µM) | 0.5 µg/mL (≈ 0.452 µM) | 1 µg/mL (≈ 0.904 µM) | 4 µg/mL (≈ 3.62 µM) | 
CC[C@@H]1NC(=O)[C@@H](CC(C)C)NC(=O)[C@H](CCN)NC(=O)[C@@H](NC(=O)[C@H](CN)NC(=O)[C@@H](NC(=O)[C@H](CCN)NC(=O)c2nc3ccccc3n2C)[C@@H](C)O)CCNC(=O)[C@H]([C@@H](C)O)NC(=O)[C@H](CCN)NC(=O)[C@H](CCN)NC1=O [Compound 57] (X69-[Dab]T[Dap][Dab][Dab][dL][Abu][Dab][Dab]T; lactam 4-C) | 0.5 µg/mL (≈ 0.437 µM) | 0.5 µg/mL (≈ 0.437 µM) | <0.125 µg/mL | 0.25 µg/mL (≈ 0.218 µM) | 1 µg/mL (≈ 0.873 µM) | <0.125 µg/mL | <0.125 µg/mL | 0.25 µg/mL (≈ 0.218 µM) | 0.5 µg/mL (≈ 0.437 µM) | 0.25 µg/mL (≈ 0.218 µM) | 0.5 µg/mL (≈ 0.437 µM) | 0.5 µg/mL (≈ 0.437 µM) | 0.25 µg/mL (≈ 0.218 µM) | 
CC[C@@H]1NC(=O)[C@@H](CC(C)C)NC(=O)[C@H](CCN)NC(=O)[C@@H](NC(=O)[C@H](CN)NC(=O)[C@@H](NC(=O)[C@H](CCN)NC(=O)c2ccncc2Cl)[C@@H](C)O)CCNC(=O)[C@H]([C@@H](C)O)NC(=O)[C@H](CCN)NC(=O)[C@H](CCN)NC1=O [Compound 34] (X53-[Dab]T[Dap][Dab][Dab][dL][Abu][Dab][Dab]T; lactam 4-C) | 8 µg/mL (≈ 7.1 µM) | 8 µg/mL (≈ 7.1 µM) | 0.25 µg/mL (≈ 0.222 µM) | 0.5 µg/mL (≈ 0.444 µM) | 2 µg/mL (≈ 1.78 µM) | <0.125 µg/mL | 1 µg/mL (≈ 0.888 µM) | 1 µg/mL (≈ 0.888 µM) | 0.25 µg/mL (≈ 0.222 µM) | 0.25 µg/mL (≈ 0.222 µM) | 0.25 µg/mL (≈ 0.222 µM) | 1 µg/mL (≈ 0.888 µM) | 8 µg/mL (≈ 7.1 µM) | 
